The numbers were not newly measured in PubChem BioAssay AID1259409 (Chemical Carcinogenesis Research Information System (CCRIS), 2018), which cites them from elsewhere.

For the data set, the system named is rodent chemically induced tumor inhibition, incidence and multiplicity. The data set is described as follows: CCRIS tumor inhibitor studies. To be noted: Dose [Inhibitor]: 0, Route [Inhibitor]: ORAL.

Take `O=C(O)c1ccc(O)c(O)c1`: the “tumour outcome (control, treated, inhibition, significance)” value (Carcinogen: N-BUTYL-N-(4-HYDROXYBUTYL)NITROSAMINE, 3817-11-6, 2000 PPM IN DIET FOR 33 WK BEGINNING 1 WK POST CARCINOGEN TREATMENT (STUDY DURATION: 41 WK), Species: RAT, Strain/Sex: F344/MALE, Target Tissue: Type of Lesion: BLADDER: CARCINOMA, Dose [Carcinogen]: 0.05% IN DRINKING WATER FOR 6 WK, Promoter: NONE USED) is reported as 17/22 (77%), 11/27 (41%), 47%, p<0.03; the “tumour outcome (control, treated, inhibition, significance)” value (Carcinogen: N-BUTYL-N-(4-HYDROXYBUTYL)NITROSAMINE, 3817-11-6, 2000 PPM IN DIET FOR 33 WK BEGINNING 1 WK POST CARCINOGEN TREATMENT (STUDY DURATION: 41 WK), Species: RAT, Strain/Sex: F344/MALE, Target Tissue: Type of Lesion: BLADDER: PAPILLOMA, Dose [Carcinogen]: 0.05% IN DRINKING WATER FOR 6 WK, Promoter: NONE USED) is given as 1/22 (5%), 1/27 (4%), 20%, not significant; the “tumour outcome (control, treated, inhibition, significance)” value (Carcinogen: N-METHYL-N-NITROSOUREA, 684-93-5, 1000 PPM IN DIET FOR 14 WK BEGINNING 1 WK PRIOR TO CARCINOGEN TREATMENT (STUDY DURATION: 32 WK), Species: RAT, Strain/Sex: F344/MALE, Target Tissue: Type of Lesion: GLANDULAR STOMACH: ADENOCARCINOMA, Dose [Carcinogen]: 400 PPM IN DRINKING WATER FOR 12 WK, Promoter: NONE USED) is recorded as 59%, 18%, 69%, p<0.05; the “tumour outcome (control, treated, inhibition, significance)” value (Carcinogen: N-METHYL-N-NITROSOUREA, 684-93-5, 1000 PPM IN DIET FOR 14 WK BEGINNING 1 WK PRIOR TO CARCINOGEN TREATMENT (STUDY DURATION: 36 WK), Species: RAT, Strain/Sex: F344/MALE, Target Tissue: Type of Lesion: GLANDULAR STOMACH: ADENOCARCINOMA, Dose [Carcinogen]: 400 PPM IN DRINKING WATER FOR 12 WK, Promoter: NONE USED) is 13/22 (59%), 4/22 (18%), 69%, p<0.05; the “tumour outcome (control, treated, inhibition, significance)” value (Carcinogen: N-NITROSOBIS(2-OXOPROPYL)AMINE, 60599-38-4, 500 PPM IN DIET FOR 49 WK BEGINNING 1 WK POST CARCINOGEN LAST TREATMENT (STUDY DURATION: 51 WK), Species: HAMSTER, Strain/Sex: SYRIAN/FEMALE, Target Tissue: Type of Lesion: KIDNEY: ADENOCARCINOMA, Dose [Carcinogen]: 20 MG/KG BW 1/WK FOR 2 WK) is reported as 7%, 7%, 0%, not significant; the “tumour outcome (control, treated, inhibition, significance)” value (Carcinogen: N-NITROSOBIS(2-OXOPROPYL)AMINE, 60599-38-4, 500 PPM IN DIET FOR 49 WK BEGINNING 1 WK POST CARCINOGEN LAST TREATMENT (STUDY DURATION: 51 WK), Species: HAMSTER, Strain/Sex: SYRIAN/FEMALE, Target Tissue: Type of Lesion: LIVER: CHOLANGIOCELLULAR CARCINOMA, Dose [Carcinogen]: 20 MG/KG BW 1/WK FOR 2 WK) is 65.5%, 59%, 12%, not significant. In addition, the “tumour outcome (control, treated, inhibition, significance)” value is given as 3%, 0%, 100%, not significant (Carcinogen: N-NITROSOBIS(2-OXOPROPYL)AMINE, 60599-38-4, 500 PPM IN DIET FOR 49 WK BEGINNING 1 WK POST CARCINOGEN LAST TREATMENT (STUDY DURATION: 51 WK), Species: HAMSTER, Strain/Sex: SYRIAN/FEMALE, Target Tissue: Type of Lesion: LIVER: HEMANGIOMA, Dose [Carcinogen]: 20 MG/KG BW 1/WK FOR 2 WK); 72%, 79%, -9%, not significant (Carcinogen: N-NITROSOBIS(2-OXOPROPYL)AMINE, 60599-38-4, 500 PPM IN DIET FOR 49 WK BEGINNING 1 WK POST CARCINOGEN LAST TREATMENT (STUDY DURATION: 51 WK), Species: HAMSTER, Strain/Sex: SYRIAN/FEMALE, Target Tissue: Type of Lesion: LIVER: HEPATOCELLULAR ADENOMA, Dose [Carcinogen]: 20 MG/KG BW 1/WK FOR 2 WK); 17%, 14%, 20%, not significant (Carcinogen: N-NITROSOBIS(2-OXOPROPYL)AMINE, 60599-38-4, 500 PPM IN DIET FOR 49 WK BEGINNING 1 WK POST CARCINOGEN LAST TREATMENT (STUDY DURATION: 51 WK), Species: HAMSTER, Strain/Sex: SYRIAN/FEMALE, Target Tissue: Type of Lesion: LIVER: HEPATOCELLULAR CARCINOMA, Dose [Carcinogen]: 20 MG/KG BW 1/WK FOR 2 WK); 33%, 33%, 0%, not significant (Carcinogen: N-NITROSOBIS(2-OXOPROPYL)AMINE, 60599-38-4, 500 PPM IN DIET FOR 49 WK BEGINNING 1 WK POST CARCINOGEN LAST TREATMENT (STUDY DURATION: 51 WK), Species: HAMSTER, Strain/Sex: SYRIAN/FEMALE, Target Tissue: Type of Lesion: LUNG: ADENOCARCINOMA, Dose [Carcinogen]: 20 MG/KG BW 1/WK FOR 2 WK); 83%, 87%, -4%, not significant (Carcinogen: N-NITROSOBIS(2-OXOPROPYL)AMINE, 60599-38-4, 500 PPM IN DIET FOR 49 WK BEGINNING 1 WK POST CARCINOGEN LAST TREATMENT (STUDY DURATION: 51 WK), Species: HAMSTER, Strain/Sex: SYRIAN/FEMALE, Target Tissue: Type of Lesion: LUNG: ADENOMA, Dose [Carcinogen]: 20 MG/KG BW 1/WK FOR 2 WK); 3%, 3%, 0%, not significant (Carcinogen: N-NITROSOBIS(2-OXOPROPYL)AMINE, 60599-38-4, 500 PPM IN DIET FOR 49 WK BEGINNING 1 WK POST CARCINOGEN LAST TREATMENT (STUDY DURATION: 51 WK), Species: HAMSTER, Strain/Sex: SYRIAN/FEMALE, Target Tissue: Type of Lesion: OVARY: CYSTADENOMA, Dose [Carcinogen]: 20 MG/KG BW 1/WK FOR 2 WK). Also, the “tumour outcome (control, treated, inhibition, significance)” value reads like this: (Carcinogen: N-NITROSOBIS(2-OXOPROPYL)AMINE, 60599-38-4, 500 PPM IN DIET FOR 49 WK BEGINNING 1 WK POST CARCINOGEN LAST TREATMENT (STUDY DURATION: 51 WK), Species: HAMSTER, Strain/Sex: SYRIAN/FEMALE, Target Tissue: Type of Lesion: PANCREAS: ADENOCARCINOMA, Dose [Carcinogen]: 20 MG/KG BW 1/WK FOR 2 WK) 86%, 90%, -4%, not significant; (Carcinogen: N-NITROSOBIS(2-OXOPROPYL)AMINE, 60599-38-4, 1000 PPM IN DIET FOR 49 WK BEGINNING 1 WK POST CARCINOGEN LAST TREATMENT (STUDY DURATION: 51 WK), Species: HAMSTER, Strain/Sex: SYRIAN/FEMALE, Target Tissue: Type of Lesion: LIVER: CHOLANGIOCELLULAR ADENOMA, Dose [Carcinogen]: 20 MG/KG BW 1/WK FOR 2 WK) 31%, 34%, -11%, not significant; (Carcinogen: N-NITROSOBIS(2-OXOPROPYL)AMINE, 60599-38-4, 1000 PPM IN DIET FOR 49 WK BEGINNING 1 WK POST CARCINOGEN LAST TREATMENT (STUDY DURATION: 51 WK), Species: HAMSTER, Strain/Sex: SYRIAN/FEMALE, Target Tissue: Type of Lesion: LIVER: CHOLANGIOCELLULAR CARCINOMA, Dose [Carcinogen]: 20 MG/KG BW 1/WK FOR 2 WK) 65%, 55%, 16%, not significant; (Carcinogen: N-NITROSOBIS(2-OXOPROPYL)AMINE, 60599-38-4, 1000 PPM IN DIET FOR 49 WK BEGINNING 1 WK POST CARCINOGEN LAST TREATMENT (STUDY DURATION: 51 WK), Species: HAMSTER, Strain/Sex: SYRIAN/FEMALE, Target Tissue: Type of Lesion: LIVER: HEPATOCELLULAR ADENOMA, Dose [Carcinogen]: 20 MG/KG BW 1/WK FOR 2 WK) 72% 59%, 19%, not significant; (Carcinogen: N-NITROSOBIS(2-OXOPROPYL)AMINE, 60599-38-4, 1000 PPM IN DIET FOR 49 WK BEGINNING 1 WK POST CARCINOGEN LAST TREATMENT (STUDY DURATION: 51 WK), Species: HAMSTER, Strain/Sex: SYRIAN/FEMALE, Target Tissue: Type of Lesion: LIVER: HEPATOCELLULAR CARCINOMA, Dose [Carcinogen]: 20 MG/KG BW 1/WK FOR 2 WK) 17%, 21%, -20%, not significant; (Carcinogen: N-NITROSOBIS(2-OXOPROPYL)AMINE, 60599-38-4, 1000 PPM IN DIET FOR 49 WK BEGINNING 1 WK POST CARCINOGEN LAST TREATMENT (STUDY DURATION: 51 WK), Species: HAMSTER, Strain/Sex: SYRIAN/FEMALE, Target Tissue: Type of Lesion: LUNG: ADENOCARCINOMA, Dose [Carcinogen]: 20 MG/KG BW 1/WK FOR 2 WK) 33%, 39%, -18%, not significant. Also, the “tumour outcome (control, treated, inhibition, significance)” value (Carcinogen: N-NITROSOBIS(2-OXOPROPYL)AMINE, 60599-38-4, 1000 PPM IN DIET FOR 49 WK BEGINNING 1 WK POST CARCINOGEN LAST TREATMENT (STUDY DURATION: 51 WK), Species: HAMSTER, Strain/Sex: SYRIAN/FEMALE, Target Tissue: Type of Lesion: LUNG: ADENOMA, Dose [Carcinogen]: 20 MG/KG BW 1/WK FOR 2 WK) was 83%, 89%, -7%, not significant and the “tumour outcome (control, treated, inhibition, significance)” value (Carcinogen: N-NITROSOBIS(2-OXOPROPYL)AMINE, 60599-38-4, 1000 PPM IN DIET FOR 49 WK BEGINNING 1 WK POST CARCINOGEN LAST TREATMENT (STUDY DURATION: 51 WK), Species: HAMSTER, Strain/Sex: SYRIAN/FEMALE, Target Tissue: Type of Lesion: PANCREAS: ADENOCARCINOMA, Dose [Carcinogen]: 20 MG/KG BW 1/WK FOR 2 WK) was 86%, 90%, -4%, not significant.
